The record followed here is ChEMBL document CHEMBL1201862, “PubChem BioAssay data set” (2004).

Common to all, as to experiment: DTP human tumour cell line panel, 48 h
The test system of test [1] is RPMI-8226.
Test [2] relates to A549.
For test [3], the system named is KM12.
The test system of test [4] is HOP-62.
The subject of test [5] is SF-295.
In test [6] the test system is CAKI-1.
The test system of test [7] is COLO 205.
The test system of test [8] is UACC-257.
Test [9] deals with HOP-92.
Test [10] relates to NCI-H226.
Test [11] deals with HCT-15.
Test [12] relates to K562.
For test [13], the system named is NCI-H460.
Test [14] has as its system EKVX.
The subject of test [15] is UACC-62.
Test [16] has as its system Malme-3M.
In test [17] the test system is A498.
The subject of test [18] is OVCAR-4.

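These data come from cells grown in 96-well plates and exposed to compound for 48 hours at five concentrations. GI50 is the concentration that inhibits growth by half.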 Activity calls are given as the source filed them. Rule as the data show it: active = GI50 up to about 1.1 µM and inactive = higher.

With `COc1cc(/C=C/C(=O)c2sc(-n3nc(-c4ccccc4)cc3-c3ccccc3)nc2C)ccc1O`, the GI50 in test [1] is > 100 µM (inactive); in test [2], > 100 µM (inactive); in test [3], 15.5 µM (inactive); in [4], > 100 µM (inactive); in test [5], 57 µM (inactive); in test [6], 6.64 µM (inactive). Besides, the GI50 in test [7] is > 100 µM (inactive); in [8], > 100 µM (inactive); in test [9], 2.47 µM (inactive); in [10], > 100 µM (inactive); in test [11] it was 28.5 µM; in test [12], 32.7 µM (inactive). Besides, the GI50 is > 100 µM (inactive) in [13]; 4.7 µM (inactive) in test [14]; > 100 µM (inactive) in [15]; > 100 µM (inactive) in [16]; > 100 µM (inactive) in test [17].

As to `COc1ccc(CN(CCN(C)C)c2ccccn2)cc1.Cn1c(=O)c2[nH]c(Br)nc2n(C)c1=O`, the GI50 in [3] is > 100 µM (inactive); in [4], > 100 µM (inactive); in test [5] it was > 100 µM (inactive); in test [6] it was > 100 µM (inactive); in test [8] it was > 100 µM (inactive); in [9] it was 22.3 µM (inactive). The GI50 was 71.6 µM in [11], 94 µM (inactive) in test [12], > 100 µM (inactive) in [16] and > 100 µM (inactive) in [17].

Take `O=C1CCC2(c3ccc(F)cc3)Nc3ncccc3N12` (stereo not drawn): the GI50 in test [1], in [2], in test [3], in test [4], in test [5] and in test [6] was > 100 µM (inactive) in each case. Further, the GI50 in test [7] is > 100 µM (inactive); in test [8], > 100 µM (inactive); in test [9], > 100 µM (inactive); in test [10], > 100 µM (inactive); in test [11], above 100 µM; in test [12], > 100 µM (inactive). The GI50 in test [13], in [14], in test [15], in test [16], in test [17] and in [18] was > 100 µM (inactive) each time.

For `Cc1cc(=O)n(-c2cc3cccccc-3n2)[nH]1`, the GI50 is 8 µM (inactive) in [1]; 12.4 µM (inactive) in test [2]; 5.38 µM (inactive) in test [3]; 4.34 µM (inactive) in test [4]; 16.7 µM (inactive) in test [5]; 14.4 µM (inactive) in [7]. Moreover, the GI50 in test [8] was 5.15 µM (inactive); in [10] it was 12.1 µM (inactive); in test [11], 5.07 µM; in test [12], 2.74 µM (inactive); in test [13] it was 3.4 µM (inactive); in [14], 12.5 µM (inactive). For the same compound, the GI50 is 2.84 µM (inactive) in test [15], 3.76 µM (inactive) in test [16] and 16.8 µM (inactive) in test [17].

`COc1ccc(/C(Cl)=C(\C=O)c2ccc([N+](=O)[O-])cc2)cc1`: the GI50 is 2.37 µM (inactive) in test [1]; 17.7 µM (inactive) in test [2]; 2.4 µM (inactive) in [3]; 21.5 µM (inactive) in test [4]; 13.2 µM (inactive) in test [5]; 11.1 µM (inactive) in test [6]. In addition, the GI50 was 19.1 µM (inactive) in test [7]; 10.1 µM (inactive) in test [8]; 6.97 µM (inactive) in test [9]; 14.1 µM (inactive) in [10]; 5.25 µM in [11]; 3.12 µM (inactive) in [12]. The GI50 was 18.3 µM (inactive) in test [13]; 21.8 µM (inactive) in [14]; 7.67 µM (inactive) in [15]; 15.6 µM (inactive) in test [16]; 22.4 µM (inactive) in test [17]; 17.5 µM (inactive) in test [18].

For `O=S(=O)(O)c1cc(/N=N/c2c(O)ccc3ccccc23)ccc1/C=C/c1ccc(/N=N/c2c(O)ccc3ccccc23)cc1S(=O)(=O)O`, the GI50 in test [1], in test [2], in [3], in [4], in test [5] and in test [6] was > 100 µM (inactive) in each case. The GI50 in test [7] is > 100 µM (inactive); in [8], > 100 µM (inactive); in test [9] it was > 100 µM (inactive); in [10], > 100 µM (inactive); in test [11] it was above 100 µM; in test [12], > 100 µM (inactive). In addition, the GI50 was > 100 µM (inactive) in [14], > 100 µM (inactive) in test [15], 26.9 µM (inactive) in test [16] and > 100 µM (inactive) in [18].

For the compound `CCOC(=O)NC(=O)c1cn(CCOC(=O)NCCCCCCNC(=O)OCCn2cc(C(=O)NC(=O)OCC)c(=O)[nH]c2=O)c(=O)[nH]c1=O`, the GI50 in test [1], in test [2], in test [3], in test [4], in test [5] and in test [6] was > 100 µM (inactive) each time. The GI50 is > 100 µM (inactive) in test [7]; > 100 µM (inactive) in test [8]; > 100 µM (inactive) in [10]; above 100 µM in [11]; > 100 µM (inactive) in test [12]; > 100 µM (inactive) in test [13]. The GI50 in test [14], in [15], in [16], in test [17] and in test [18] was > 100 µM (inactive) each time.

For `COC(=O)CCC(=O)Nc1cccc(C(F)(F)F)c1`, the GI50 in test [1], in test [2], in [3], in test [4], in [5] and in test [6] was > 100 µM (inactive) each time. Further, the GI50 in [7] was > 100 µM (inactive); in [8] it was > 100 µM (inactive); in test [9], > 100 µM (inactive); in test [11], above 100 µM; in test [12] it was > 100 µM (inactive); in test [13], > 100 µM (inactive). The GI50 in test [14], in test [15], in [16], in [17] and in test [18] was > 100 µM (inactive) in each case.

As for `CCCCCCC(=O)C/C(=N/NC(N)=S)C(=O)NC1C2CC3CC(C2)CC1C3` (stereo not drawn), the GI50 in test [1], in test [2], in test [3], in [4], in test [5] and in test [7] was > 100 µM (inactive) throughout. Besides, the GI50 is > 100 µM (inactive) in test [8]; 86.1 µM (inactive) in test [9]; > 100 µM (inactive) in test [10]; > 100 µM (inactive) in test [13]; > 100 µM (inactive) in test [14]; > 100 µM (inactive) in test [15]. Moreover, the GI50 in [16] and in [18] was > 100 µM (inactive) throughout.

Regarding `CN1C(=O)C2C=CC1C1CCC2N(C)C1=O` (stereo not drawn), the GI50 in test [1], in test [2], in test [3], in test [5], in test [6] and in test [7] was > 100 µM (inactive) throughout. Also, the GI50 is > 100 µM (inactive) in [8]; > 100 µM (inactive) in test [9]; > 100 µM (inactive) in test [10]; above 100 µM in test [11]; > 100 µM (inactive) in [12]; > 100 µM (inactive) in [14]. Further, the GI50 in test [15], in test [16], in test [17] and in [18] was > 100 µM (inactive) in each case.

With `CN1CCc2c1nc(-c1ccc(Cl)cc1)c1c2N(C)CC1`, the GI50 in test [1] was 9.06 µM (inactive); in [2] it was 18.3 µM (inactive); in [3], 3.7 µM (inactive); in [4], 11.2 µM (inactive); in test [5], 14.1 µM (inactive); in test [6], 6.44 µM (inactive). The GI50 in test [7] is 2.07 µM (inactive); in test [8], 13.7 µM (inactive); in test [11], 7.06 µM; in [12] it was 9.29 µM (inactive); in test [13] it was 15.7 µM (inactive); in test [14], 35.1 µM (inactive). For the same compound, the GI50 in test [15] was 5.94 µM (inactive); in test [16] it was > 100 µM (inactive); in test [17], 19.7 µM (inactive); in test [18] it was 28.4 µM (inactive).

For `NC1CCC[C@H]1O` (stereo partly drawn), the GI50 in [1], in [2], in test [3], in test [4], in test [5] and in test [7] was > 100 µM (inactive) throughout. The GI50 in test [8] is > 100 µM (inactive); in [9], > 100 µM (inactive); in [10], > 100 µM (inactive); in [11] it was above 100 µM; in test [12], > 100 µM (inactive); in [13] it was > 100 µM (inactive). For the same compound, the GI50 in [14], in [15], in [16], in [17] and in [18] was > 100 µM (inactive) in each case.

Consider `O=C(NN1C(=O)C(Cl)C1c1c(O)ccc2ccccc12)c1ccccc1O` (stereo not drawn), for which the GI50 is > 100 µM (inactive) in test [2]; > 100 µM (inactive) in test [3]; > 100 µM (inactive) in test [5]; > 100 µM (inactive) in test [8]; > 100 µM (inactive) in test [10]; above 100 µM in test [11]. Also, the GI50 is > 100 µM (inactive) in [12]; > 100 µM (inactive) in test [13]; > 100 µM (inactive) in test [15]; > 100 µM (inactive) in test [16]; 8.45 µM (inactive) in test [17]; > 100 µM (inactive) in [18].

In general, GI50 refers to the concentration giving 50% growth inhibition.
